Source: patent US20210268101A1 (priority 2020, published 2021)
Where “and” joins values, the source holds several entries; their conditions need not be identical. Equal entries are not always repeated. Where two headings read alike, the source gives them in different places.

Tested on: Balb/c mice
Details: serum 1:50
Description: Serum was obtained on days 10, 19, 28 and 42. Antibodies were assayed at a 1:50 dilution on Neutravidin assay plates coated with Biotin-NP146 Biotin-NP350 or Biotin-Ova8 (controls).

Sequence	Responders/Group Total (n = 8) (cutoff OD 0.3 (A450), Day 10)	Responders/Group Total (n = 8) (cutoff OD 0.3 (A450), Day 19)	Responders/Group Total (n = 8) (cutoff OD 0.3 (A450), Day 28)	Responders/Group Total (n = 8) (cutoff OD 0.3 (A450), Day 42)	Responders/Group Total (n = 8) (cutoff OD 0.5 (A450), Day 10)	Responders/Group Total (n = 8) (cutoff OD 0.5 (A450), Day 19)	Responders/Group Total (n = 8) (cutoff OD 0.5 (A450), Day 28)	Responders/Group Total (n = 8) (cutoff OD 0.5 (A450), Day 42)	Responders/Group Total (n = 8) (cutoff OD 1.0 (A450), Day 10)	Responders/Group Total (n = 8) (cutoff OD 1.0 (A450), Day 28)	Responders/Group Total (n = 8) (cutoff OD 1.0 (A450), Day 42)	Responders/Group Total (n = 8) (cutoff OD 1.5 (A450), Day 10)	Responders/Group Total (n = 8) (cutoff OD 1.5 (A450), Day 28)	Responders/Group Total (n = 8) (cutoff OD 1.5 (A450), Day 42)	Responders/Group Total (n = 8) (cutoff OD 1.0 (A450), Day 19)	Responders/Group Total (n = 8) (cutoff OD 1.5 (A450), Day 19)
DGQEEKAGVVSTGLIGGGVILLNKHIDAYKTF [DerG-NP350]	8 and 8/8	8/8	8/8	8/8	8 and 8/8	8/8	8/8	8/8	2/8	8/8	8/8	0/8	8/8	8/8	–	–
DLLKNGERIEKVEGGGVILLNKHIDAYKTF [J-NP350]	–	7/8	8/8	8/8	–	7/8	8/8	8/8	0/8	8/8	8/8	0/8	2/8	6 and 6/8	6 and 6/8	1/8
